Laboratory results: patent publication US10287305B2, “Substituted piperidine compound and use thereof” (Takeda Pharmaceutical Company Limited, priority 2016, dated 2019)

Target: human orexin type 2 receptor (hOX2R) (Homo sapiens (Human), UniProt O43614)
Assay: Measurement of orexin type 2 receptor agonist activity (Experimental Example 2-1, FLIPR TETRA, intracellular Ca2+)
Type: cell-based
Conditions: CHO dhfr- cells expressing hOX2R; for Emax at 30 µM: value at 30 uM concentration, orexin B as full agonist = 100%; for Emax: read-out: Emax (%)
Excerpt: To obtain a cell clone stably expressing human orexin type 2 receptor, human orexin type 2 receptor cDNA was inserted into pcDNA3.1(+) plasmid vector (Invitrogen), and a plasmid DNA for expression of human orexin type 2 receptor (pcDNA3.1(+)/hOX2R) was cloned. The plasmid DNA was introduced into CHO-dhfr cell by an electroporation method, and human orexin type 2 receptor expressing clone cells were obtained by limiting dilution method by using G418 drug resistance as a selection marker.
Chinese hamster ovary (CHO) dhfr-cells forcibly expressing human orexin type 2 receptor (hOX2R) were seeded in each well of Black clear bottom plate (384 wells) (Becton, Dickinson and Company) by 10,000 cells, and cultured for 16 hr in an MEM-alpha (Nikken-Bio Co., Ltd.) medium containing 100 U/ml penicillin, 100 μg/ml streptomycin, […] G418 (all above Invitrogen), and 10% fetal calf serum (Thermo), under the conditions of 37° C., 5% CO2. […] A test compound was dissolved in dimethyl sulfoxide to 10 mM, and then diluted with assay buffer 2 (20 mM HEPES, Hanks' balanced salt solution (Invitrogen), 0.1% bovine serum albumin). For the reaction, a test compound solution (10 μL) was added using Fluorescent Imaging Plate Reader TETRA (FLIPR TETRA; manufactured by Molecular Devices), a fluorescence value (excitation wavelength 488 nm, measurement wavelength 570 nm) of each well was measured every one second for 1 min, and the agonist activity was determined using the area of the fluorescence value as an indicator of intracellular Ca^2+ concentration.

[1] = agonist activity, 10 nM human orexin B = 100%

human orexin type 2 receptor (hOX2R), sequence (O43614 whole entry): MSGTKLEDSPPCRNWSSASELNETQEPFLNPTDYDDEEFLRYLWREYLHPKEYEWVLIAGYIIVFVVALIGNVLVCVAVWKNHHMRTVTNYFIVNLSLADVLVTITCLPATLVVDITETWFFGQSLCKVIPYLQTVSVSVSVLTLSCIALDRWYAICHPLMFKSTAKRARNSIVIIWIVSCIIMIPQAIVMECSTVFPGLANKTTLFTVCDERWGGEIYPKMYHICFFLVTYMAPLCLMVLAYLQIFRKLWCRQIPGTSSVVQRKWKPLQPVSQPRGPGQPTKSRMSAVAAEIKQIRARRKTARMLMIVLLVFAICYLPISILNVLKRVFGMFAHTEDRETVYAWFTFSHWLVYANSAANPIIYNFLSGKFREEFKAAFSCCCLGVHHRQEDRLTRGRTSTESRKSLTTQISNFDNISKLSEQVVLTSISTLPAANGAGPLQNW

Structure (SMILES)	EC50 [1] [nM]	Emax at 30 µM [%]	EC50 (FLIPR TETRA, Fluo-4AM) [nM]	Emax (FLIPR TETRA, Fluo-4AM) [%]
CCNC(=O)N1CCC[C@H](NS(C)(=O)=O)[C@@H]1COC1CCN(c2ncccn2)CC1 (relative stereo) [Example 118, cis-N-ethyl-3-((methylsulfonyl)amino)-2-(((1-(pyrimidin-2-yl)piperidin-4-yl)oxy)methyl)piperidine-1-carboxamide]	4.6	105	–	–
COCC(=O)N1CCC[C@H](NS(C)(=O)=O)[C@@H]1CO[C@H]1CC[C@@H](c2ccccc2)CC1 (relative stereo) [Example 119, N-(cis-1-(methoxyacetyl)-2-(((cis-4-phenylcyclohexyl)oxy)methyl)piperidin-3-yl)methanesulfonamide]	30	107	–	–
CS(=O)(=O)N[C@H]1CCCN(C(=O)C2COC2)[C@H]1CO[C@H]1CC[C@@H](c2ccccc2)CC1 (relative stereo) [Example 120, N-(cis-1-(oxetan-3-ylcarbonyl)-2-(((cis-4-phenylcyclohexyl)oxy)methyl)piperidin-3-yl)methanesulfonamide]	61	96	–	–
CS(=O)(=O)N[C@H]1CCCN(C(=O)C2CCOCC2)[C@H]1CO[C@H]1CC[C@@H](c2ccccc2)CC1 (relative stereo) [Example 121, N-(cis-2-(((cis-4-phenylcyclohexyl)oxy)methyl)-1-(tetrahydro-2H-pyran-4-ylcarbonyl)piperidin-3-yl)methanesulfonamide]	–	–	8.8	111
CCNC(=O)N1CCC[C@H](NS(C)(=O)=O)[C@@H]1COC1CCN(c2ccccc2)CC1 (relative stereo) [Example 123, cis-N-ethyl-3-((methylsulfonyl)amino)-2-(((1-phenylpiperidin-4-yl)oxy)methyl)piperidine-1-carboxamide]	–	–	390	120
CCNC(=O)N1CCC[C@H](NS(C)(=O)=O)[C@@H]1COC1CCC(OC)CC1 (relative stereo) [Example 126, cis-N-ethyl-2-(((4-methoxycyclohexyl)oxy)methyl)-3-((methylsulfonyl)amino)piperidine-1-carboxamide]	–	–	2600	85
CC(=O)N1CCC[C@H](NS(C)(=O)=O)[C@@H]1CO[C@H]1CC[C@@H](C)CC1 (relative stereo) [Example 128, N-(cis-1-acetyl-2-(((cis-4-methylcyclohexyl)oxy)methyl)piperidin-3-yl)methanesulfonamide]	–	–	2400	88
CCNC(=O)N1CCC[C@H](NS(C)(=O)=O)[C@@H]1CO[C@H]1CC[C@@H](C)CC1 (relative stereo) [Example 129, cis-N-ethyl-2-(((cis-4-methylcyclohexyl)oxy)methyl)-3-((methylsulfonyl)amino)piperidine-1-carboxamide]	–	–	39	96
CCNC(=O)N1CCC[C@H](NS(C)(=O)=O)[C@@H]1CO[C@H]1C[C@H](c2ccccc2)C1 (relative stereo) [Example 130, cis-N-ethyl-3-((methylsulfonyl)amino)-2-(((trans-3-phenylcyclobutyl)oxy)methyl)piperidine-1-carboxamide]	–	–	460	96
CN(C)CC(=O)N1CCC[C@H](NS(C)(=O)=O)[C@@H]1CO[C@H]1CC[C@@H](c2ccccc2)CC1 (relative stereo) [Example 133, N-(cis-1-(N,N-dimethylglycyl)-2-(((cis-4-phenylcyclohexyl)oxy)methyl)piperidin-3-yl)methanesulfonamide]	–	–	1000	97
CCNC(=O)N1CCC[C@H](NS(C)(=O)=O)[C@@H]1CO[C@H]1CC[C@@H](c2cccc(F)c2F)CC1 (relative stereo) [Example 136, cis-2-(((cis-4-(2,3-difluorophenyl)cyclohexyl)oxy)methyl)-N-ethyl-3-((methylsulfonyl)amino)piperidine-1-carboxamide]	–	–	0.22	102
CCNC(=O)N1CCC[C@H](NS(C)(=O)=O)[C@@H]1CO[C@H]1CC[C@@H](c2cnn(C)c2)CC1 (relative stereo) [Example 137, cis-N-ethyl-2-(((cis-4-(1-methyl-1H-pyrazol-4-yl)cyclohexyl)oxy)methyl)-3-((methylsulfonyl)amino)piperidine-1-carboxamide]	–	–	240	101
CS(=O)(=O)N[C@H]1CCCN(C(=O)Cn2cccn2)[C@H]1CO[C@H]1CC[C@@H](c2ccccc2)CC1 (relative stereo) [Example 138, N-(cis-2-(((cis-4-phenylcyclohexyl)oxy)methyl)-1-(1H-pyrazol-1-ylacetyl)piperidin-3-yl)methanesulfonamide]	–	–	22	94
CS(=O)(=O)N[C@H]1CCCN(C(=O)C(F)F)[C@H]1CO[C@H]1CC[C@@H](c2ccccc2)CC1 (relative stereo) [Example 139, N-(cis-1-(difluoroacetyl)-2-(((cis-4-phenylcyclohexyl)oxy)methyl)piperidin-3-yl)methanesulfonamide]	–	–	–	103
CCNC(=O)N1CCC[C@H](NS(C)(=O)=O)[C@@H]1CO[C@H]1CO[C@@H](c2ccccc2)OC1 (relative stereo) [Example 140, cis-N-ethyl-3-((methylsulfonyl)amino)-2-(((cis-2-phenyl-1,3-dioxan-5-yl)oxy)methyl)piperidine-1-carboxamide]	–	–	390	92
CC(=O)N1CCC[C@H](NS(C)(=O)=O)[C@@H]1CO[C@H]1CC[C@@H](c2ccc(F)c(F)c2)CC1 (relative stereo) [Example 141, N-(cis-1-acetyl-2-(((cis-4-(3,4-difluorophenyl)cyclohexyl)oxy)methyl)piperidin-3-yl)methanesulfonamide]	–	–	460	95
CS(=O)(=O)N[C@H]1CCCN[C@H]1CO[C@H]1CC[C@@H](c2ccc(F)cc2F)CC1 (relative stereo) [Example 142, N-(cis-2-(((cis-4-(2,4-difluorophenyl)cyclohexyl)oxy)methyl)piperidin-3-yl)methanesulfonamide]	–	–	4000	96
Cn1ccc([C@H]2CC[C@@H](OC[C@@H]3NCCC[C@@H]3NS(C)(=O)=O)CC2)n1 (relative stereo) [Example 143, N-(cis-2-(((cis-4-(1-methyl-1H-pyrazol-3-yl)cyclohexyl)oxy)methyl)piperidin-3-yl)methanesulfonamide]	–	–	–	96
CCNC(=O)N1CCC[C@H](NS(C)(=O)=O)[C@@H]1CO[C@H]1CC[C@@H](c2ccc(F)c(F)c2)CC1 (relative stereo) [Example 144, cis-2-(((cis-4-(3,4-difluorophenyl)cyclohexyl)oxy)methyl)-N-ethyl-3-((methylsulfonyl)amino)piperidine-1-carboxamide]	–	–	1	104
CC(=O)N1CCC[C@H](NS(C)(=O)=O)[C@@H]1CO[C@H]1CC[C@@H](c2ccc(F)cc2F)CC1 (relative stereo) [Example 145, N-(cis-1-acetyl-2-(((cis-4-(2,4-difluorophenyl)cyclohexyl)oxy)methyl)piperidin-3-yl)methanesulfonamide]	–	–	810	106
CCNC(=O)N1CCC[C@H](NS(C)(=O)=O)[C@@H]1CO[C@H]1CC[C@@H](c2ccc(F)cc2F)CC1 (relative stereo) [Example 146, cis-2-(((cis-4-(2,4-difluorophenyl)cyclohexyl)oxy)methyl)-N-ethyl-3-((methylsulfonyl)amino)piperidine-1-carboxamide]	–	–	2.5	100
COC(=O)N1CCC[C@H](NS(C)(=O)=O)[C@@H]1COC1CCN(c2ncccn2)CC1 (relative stereo) [Example 151, methyl cis-3-((methylsulfonyl)amino)-2-(((1-(pyrimidin-2-yl)piperidin-4-yl)oxy)methyl)piperidine-1-carboxylate]	–	–	490	107
CS(=O)(=O)N[C@H]1CCCN(S(C)(=O)=O)[C@H]1CO[C@H]1CC[C@@H](c2ccccc2)CC1 (relative stereo) [Example 152, N-(cis-1-(methylsulfonyl)-2-(((cis-4-phenylcyclohexyl)oxy)methyl)piperidin-3-yl)methanesulfonamide]	–	–	–	96
COC(=O)N1CCC[C@H](NS(C)(=O)=O)[C@@H]1CO[C@H]1CC[C@@H](c2ccn(C)n2)CC1 (relative stereo) [Example 154, methyl cis-2-(((cis-4-(1-methyl-1H-pyrazol-3-yl)cyclohexyl)oxy)methyl)-3-((methylsulfonyl)amino)piperidine-1-carboxylate]	–	–	2400	94
CC(C)(C)OC(=O)N1CCC[C@H](NS(C)(=O)=O)[C@@H]1CO[C@H]1CC[C@@H](c2ccccc2)CC1 (relative stereo) [Example 155, tert-butyl cis-3-((methylsulfonyl)amino)-2-(((cis-4-phenylcyclohexyl)oxy)methyl)piperidine-1-carboxylate]	–	–	–	95
